Measured values published in patent US10736906B2, “Method to enhance tissue regeneration” (CHILDREN'S MEDICAL CENTER CORPORATION, priority 2006, dated 2020).
“Also recorded” adds a separate entry of the source.

How the values were obtained:
Format in all cases: in vivo
[1] = tested on: hematopoietic stem cells (HSCs); experiment: HSC formation in zebrafish embryos (runx1, c-myb expression), with heat-shock inducible wnt modulators
Description: The functional consequences of the PGE2/wnt interaction in HSC formation during embryonic development were analyzed by examining the expression of the HSC markers runx1 and c-myb. Heat shock induction of a canonical wnt ligand, wnt8, at ten somites led to enhanced HSC formation at 36 hours post fertilization (hpf; 47/54). When wnt8 induction was followed by exposure to indomethacin (10 μM, 16-36 hpf) HSC formation was reduced to or below wild-type levels ( 43/46).
Inducible negative regulators of wnt activity were used in combination with dmPGE2 treatment to functionally localize the interaction between the PG and wnt pathways. Dkk1 antagonizes the wnt pathway at the level of membrane binding and the initiation of the wnt signaling cascade. Dkk induction in hs:dkk1 transgenic embryos inhibited HSC development ( 34/49). Exposure to exogenous dmPGE2 rescued the dkk1-mediated effect on HSC formation ( 28/51, 10 μM, 16-36 hpf). Axin is a central component of the β-catenin destruction complex and thus a negative regulator of the wnt signaling cascade in the cytosolic compartment. […] Similarly, a dominant-negative form of the β-catenin transcriptional co-activator TCF abolished HSC formation ( 60/62), and no rescue was affected via dmPGE2 exposure.
The wnt pathway can actively enhance HSC proliferation through signaling from the HSC niche as well as within HSCs themselves. PGE2 regulates HSC formation at the level of the vascular niche as well as within the HSCs. North et al., 2007. In order to identify transcriptional programs regulated by the wnt signaling pathway, genes involved in HSC development were analyzed by qPCR.
The functional interaction of signaling processes in the zebrafish, down stream from PG, was explored by increasing camp production using forskolin and inhibiting PKA with H89. […] Furthermore, the rescue of dkk effects by dmPGE2 was eliminated by H89.
Heat shock activation/repression of wnt signaling: Embryonic heat-shock experiments were conducted at 38° C. for a duration of 20 minutes unless otherwise noted. Genotype was determined by the presence of GFP fluorescence at three hours post heat-induction, non-fluorescence (wild-type) siblings were used as controls.
In situ hybridization: Paraformaldehyde (PFA)-fixed embryos were processed for in situ hybridization using standard zebrafish protocols such as those found on the internet at, for example, ZFIN: The Zebrafish Model Organism Database (hosted by the Univ. Oregon, Eugene, Oreg.). The following RNA probes were used to detect alterations in endodermal and liver development: GFP, LFABP, sterol carrier protein, transferrin, foxA3, insulin, trypsin, and IFABP. Changes in expression compared to wild-type controls are reported as the # altered/# scored per genotype; a minimum of three independent experiments were conducted per analysis.

[2] = tested on: stem and progenitor cell population; experiment: hematopoietic recovery following irradiation in the adult zebrafish (kidney marrow); details: ten days post irradiation; wnt8 induction 24-36 hours post irradiation
Description: (§1) It has been hypothesized that wnt activation regulates HSC self-renewal and repopulation. Wnt activation is also thought to be involved in carcinogenesis, however, making the concept of direct enhancement of wnt signaling problematic. Whether regulation of wnt activity by prostaglandin can effectively modulate HSC homeostasis in the adult, was determined by observing hematopoietic recovery following irradiation in the zebrafish. […] APCMin/+ mice have elevated β-catenin levels due to loss of APC function in the destruction complex.

bone marrow = bone marrow recovery following 5-FU chemical injury in APCMin/+ mice; details: 1 mg/kg every 48 hrs, after 5-FU
Description: as §1

adult zebrafish liver = experiment: liver regeneration and wound healing after 1/3 partial hepatectomy in adult zebrafish
Text: Following ⅓ partial hepatectomy, the zebrafish liver regenerates within five days to seven days.
As many molecular pathways controlling embryonic development mediate tissue homeostasis in the adult, the effects of prostaglandin signaling during liver regeneration were examined. […] Fish were revived and allowed to heal in fish water.
To test the requirement of functional prostaglandin signaling during regeneration, fish were exposed to the dual-specific cox inhibitor, indomethacin, from hour 6 to hour 18 following partial hepatectomy.
Liver Resection: Folling administration of tricaine anesthetic, ⅓ partial hepaectomy of the adult zebrafish liver was performed under brightfield imaging on a dissection microscope. An incision was made using microdissection scissors posterior to the heart on the left lateral portion of the abdomen.

COc1ccc2c(c1)c(CC(=O)O)c(C)n2C(=O)c1ccc(Cl)cc1 [indomethacin]
effects of wnt8/dkk1 induction on runx1, cmyb, flk1, ephB2 expression (qPCR) ([1]; indomethacin added to wnt8, dmPGE2 added to dkk1): could be modified | HSC formation reduced to or below wild-type levels after wnt8 induction (# altered/# scored) ([1]; wnt8 heat shock at ten somites, then 10 μM, 16-36 hpf): 43/46 | effect on wnt8-induced 2.5-fold increase in stem and progenitor cell population [2]: significantly diminished | effect on the proliferative advantage (bone marrow recovery) in APCMin/+ mice (bone marrow): markedly diminished the proliferative advantage | liver architecture (adult zebrafish liver; at resection margin and throughout un-injured portions): altered architecture of the liver | liver regrowth compared to controls (adult zebrafish liver; exposure following resection (indomethacin hour 6 to 18; day 1 and day 3)): significantly reduced liver re-growth | complete regeneration of the liver (adult zebrafish liver; indomethacin: by day 5 post-resection): failed to regenerate fully | wound healing at the incision site (adult zebrafish liver; skin wounds following partial hepatectomy): severely inhibited; also recorded: prohibited wound healing | regenerative index (adult zebrafish liver; treatment 6 to 18 hours post resection, wild-type and APC mutant fish): significantly diminished | β-catenin, immunohistochemistry post resection (adult zebrafish liver; wild-type and APC+/− fish): decrease in overall β-catenin levels
